Assays:
[1] = target: TRKA^WT kinase (Homo sapiens (Human), UniProt P04629); assay: Inhibitory activity against TRKA WT kinase (Caliper mobility shift); assay type: biochemical; settings: in vitro kinase assay
Procedure: (§1) Kinase Assay Process: 1× Kinase buffer was prepared. […] The compounds were serially diluted into 10 concentrations ([…], 0.15, and 0.05 nM) using a Precision 3-fold dilution method. By using the Echo550 liquid handler, 250 nL of the 100-fold final concentration compound was transferred to an OptiPlate-384F plate. a 2.5× final concentration kinase solution was prepared using 1× Kinase buffer. 10 μL of the 2.5× final concentration kinase solution was added to the compound wells and the positive control wells, and 10 μL of 1× Kinase buffer was added to the negative control wells. The plate was centrifuged at 1000 rpm for 30 seconds, vortexed for mixing, and then incubated at room temperature for 10 minutes. A mixture of 5/3× final concentration of ATP and Kinase Substrate 22 was prepared using 1× Kinase buffer. 15 μL of the mixture of the 5/3× final concentration ATP and the substrate was added to initiate the reaction, the 384-well plate was centrifuged at 1000 rpm for 30 seconds, vortexed for mixing, and incubated at room temperature for the required time. 30 μL of the termination solution was added to stop the kinase reaction, the plate was centrifuged at 1000 rpm for 30 seconds, and vortexed for mixing. The conversion rate was measured using the Caliper EZ Reader.
(§2) Data Analysis: the inhibition rate was calculated as follows:
(§3) % Inhibition=(Conversion %_max−conversion %_sample)÷(Conversion %_max−conversion %_min)×100
(§4) Conversion %_sample is the conversion rate reading for the sample; Conversion %_min is the average value of the negative control wells, representing the conversion rate for wells without enzyme activity: Conversion %_max is the average value of the positive control wells, representing the conversion rate for wells without compound inhibition. A dose-response curve was fitted using the log concentration of the compound as the X-axis and the percentage inhibition as the Y-axis. The log(inhibitor) vs. response-variable slope of the GraphPad Prism 5 software was used to fit the dose-response curve, and the IC50 value for each compound was obtained. The calculation formula is:
(§5) Y=Bottom+(Top−Bottom)/(1+10^((Log IC50−X)*HillSlope)).
(§6) wherein X represents the concentration of the compound to be tested; Y represents the inhibition rate at the concentration X: Top refers to the maximum response: Bottom refers to the baseline response; HillSlope refers to the slope of the curve (i.e., the gradient).

[2] = target: TRKA^F589L kinase (Homo sapiens (Human), UniProt P04629, F589L); assay: Inhibitory activity against TRKA(F589L) kinase (Caliper mobility shift); assay type: biochemical; settings: in vitro kinase assay
Chain of TRKA^F589L kinase (P04629 33-796 F589L): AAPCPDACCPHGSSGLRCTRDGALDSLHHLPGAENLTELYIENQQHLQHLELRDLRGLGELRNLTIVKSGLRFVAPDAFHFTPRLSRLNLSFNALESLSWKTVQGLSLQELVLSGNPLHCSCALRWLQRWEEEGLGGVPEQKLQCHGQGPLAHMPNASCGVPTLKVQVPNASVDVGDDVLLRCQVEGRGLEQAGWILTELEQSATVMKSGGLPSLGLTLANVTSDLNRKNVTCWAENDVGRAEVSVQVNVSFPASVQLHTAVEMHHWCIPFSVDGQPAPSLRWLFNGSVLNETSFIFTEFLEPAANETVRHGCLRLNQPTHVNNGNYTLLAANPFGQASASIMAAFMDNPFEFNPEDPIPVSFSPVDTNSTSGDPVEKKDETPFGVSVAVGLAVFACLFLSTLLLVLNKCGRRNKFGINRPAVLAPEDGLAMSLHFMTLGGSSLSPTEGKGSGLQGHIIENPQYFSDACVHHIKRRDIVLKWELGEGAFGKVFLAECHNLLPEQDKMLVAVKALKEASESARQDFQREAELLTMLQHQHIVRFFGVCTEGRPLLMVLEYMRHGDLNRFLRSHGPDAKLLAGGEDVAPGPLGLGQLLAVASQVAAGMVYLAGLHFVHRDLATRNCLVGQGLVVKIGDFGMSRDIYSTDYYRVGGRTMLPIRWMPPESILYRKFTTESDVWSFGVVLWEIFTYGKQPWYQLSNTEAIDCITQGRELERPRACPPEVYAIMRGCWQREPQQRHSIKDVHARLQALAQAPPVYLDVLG
Procedure: as §1, §2, §3, §4, §5, §6

[3] = system: Ba/F3-TPM3-NTRK1-G667C cells; assay: Growth inhibition of Ba/F3-TPM3-NTRK1-G667C cells (Cell Titer-Glo); assay type: cell-based; settings: 72 hours, CTG; read-out: inhibitory activity IC50 Ba/F3-TPM3-NTRK1-G667C
Procedure, shortened: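 Ba/F3 cells were exposed for 72 hours to serially DMSO-diluted compound at a top final concentration of 10 μM. Viability was read by Cell Titer-Glo luminescence after the plate equilibrated 30 min at room temperature and was then shaken 1 hour in the dark at room temperature.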

[4] = system: Ba/F3-TPM3-NTRK1-G595R cells; assay: Growth inhibition of Ba/F3-TPM3-NTRK1-G595R cells (Cell Titer-Glo); assay type: cell-based; settings: 72 hours, CTG; read-out: inhibitory activity IC50 Ba/F3-TPM3-NTRK1-G595R
Procedure: (§7) Then the solutions were subjected to a gradient dilution with DMSO: a clean, sterile V-bottom 96-well microplate was placed in the biological safety cabinet. First, 4 μL of DMSO was added to well B2 and 10 μL of DMSO was added to wells B3-B11 respectively; Next, 6 μL of the 10 mM solution was added to well B2. The microplate was pipetted up and down 10 times for mixing. […] Mixing was performed by pipetting up and down 10 times. The solution was diluted in order until well B10. only DMSO was added to well B11 (no compound).
(§8) 6× Compound Solution Preparation (6-fold dilution, × represents dilution factor): (Initial final concentration: 10 μM), a clean, sterile V-bottom 96-well microplate was placed in the biological safety cabinet. 99 μL of cell culture medium was added to each well from B2 to G11. By using a 12-channel pipettor, 1 μL of the compound solution prepared in the previous step was added into the corresponding wells. The solutions were pipetted up and down 10 times to mix the solutions. The highest concentration of compound in this step was 60 μM.
(§9) Treatment of Cells: the above-prepared cell culture plate was taken out of the incubator. 20 μL of compound solution from each well was added to the corresponding cell culture wells. The lowest pipetting speed was used and touching the bottom of the plate was avoided. The culture plate was gently shaked to mix the compound solution, then the plate was returned to the incubator for further culture for 72 hours.
(§10) The highest treatment concentration of the compound was 10 μM. After 72 hours of treatment, the Cell Titer-Glo (CTG) assay was performed. First, the cell culture plate was removed from the CO2 incubator and allowed to stand at room temperature for 30 minutes to ensure uniform temperature of the plate. The pre-prepared Cell Titer-Glo reagent (following the manufacturer's instructions) was taken and allowed to stand at room temperature to thaw. 60 μL of Cell Titer-Glo reagent was added to each well containing cells. The cells were incubated on a horizontal shaker in a dark place at 225 rpm for 1 hour at room temperature. Then, a Tecan Spark microplate reader was used to read the plate using chemiluminescence according to the manufacturer's instructions.

[5] = system: Ba/F3-TPM3-NTRK1-WT cells; assay: Growth inhibition of Ba/F3-TPM3-NTRK1-WT cells (Cell Titer-Glo); assay type: cell-based; settings: 72 hours, CTG; read-out: inhibitory activity IC50 Ba/F3-TPM3-NTRK1-WT
Procedure: as §7, §8, §9, §10

Chain of TRKA^WT kinase (P04629 33-796): as the sequence (P04629 33-796 F589L) above, with L557F counted along it

Row | IC50 [1] [nM] | IC50 [2] [nM] | IC50 [3] [nM] | IC50 [4] [nM] | IC50 [5] [nM] | Molecule
1 | < 3 | < 5 | < 100 | – | – | C[C@H]1Nc2ccc3ncc(n3n2)-c2cc(ccn2)COc2ccc(F)cc21 [Example I-14, (R)-(E)-5^4-fluoro-6-methyl-4-oxa-7-aza-1(3,6)-imidazo[1,2-b]pyridazina-2(2,4)-pyridina-5(1,2)-benzenacycloheptaphane]
2 | < 3 | < 5 | < 100 | – | – | C[C@H]1Nc2ccc3ncc(n3n2)-c2cc(ccn2)COc2c(F)cc(F)cc21 [Example I-16, (R)-(E)-5^4,5^6-difluoro-6-methyl-4-oxa-7-aza-1(3,6)-imidazo[1,2-b]pyridazine-2(2,4)-pyridina-5(1,2)-benzenacycloheptaphane]
3 | < 3 | < 5 | < 100 | – | – | C[C@H]1Nc2ccc3ncc(n3n2)-c2cc(ccn2)COc2ccccc21 [Example I-18, (R)-(E)-6-methyl-4-oxa-7-aza-1(3,6)-imidazo[1,2-b]pyridazine-2(2,4)-pyridina-5(1,2)-benzenacycloheptaphane]
4 | < 3 | < 5 | < 100 | – | – | C[C@H]1Nc2ccc3ncc(n3n2)-c2cc(ccn2)COc2ncccc21 [Example I-20, (R)-(E)-6-methyl-4-oxa-7-aza-1(3,6)-imidazo[1,2-b]pyridazina-2(2,4), 5(2,3)-dipyridinacycloheptaphane]
5 | < 3 | < 5 | < 100 | – | – | C[C@H]1Nc2ccc3ncc(n3n2)-c2cncc(c2)COc2ccc(F)cc21 [Example I-22, (R)-(E)-5^4-fluoro-6-methyl-4-oxa-7-aza-1(3,6)-imidazo[1,2-b]pyridazina-2(3,5)-pyridina-5(1,2)-benzenacycloheptaphane]
6 | < 3 | < 5 | < 100 | – | – | C[C@H]1Nc2ccc3ncc(n3n2)-c2cc(ccn2)OCc2ncc(F)cc21 [Example I-24, (R)-(E)-5^5-fluoro-6-methyl-3-oxa-7-aza-1(3,6)-imidazo[1,2-b]pyridazina-2(2,4), 5(2,3)-dipyridinacycloheptaphane]
7 | < 3 | < 5 | < 100 | – | – | C[C@H]1Nc2ccc3ncc(n3n2)-c2cc(ncn2)COc2ccccc21 [Example I-26, (R)-(E)-6-methyl-4-oxa-7-aza-1(3,6)-imidazo[1,2-b]pyridazina-2(4,6)-pyrimidina-5(1,2)-benzenacycloheptaphane]
8 | < 3 | < 5 | < 100 | – | – | C[C@H]1Nc2ccc3ncc(n3n2)-c2cc(ccn2)CCOc2ccccc21 [Example I-28, (4R,E)-4-methyl-6-oxa-3-aza-2(3,6)-imidazo[1,2-b]pyridazina-1(2,4)-pyridina-5(1,2)-benzenacyclooctaphane]
9 | < 3 | < 5 | < 100 | – | – | C[C@H]1Nc2ccc3ncc(n3n2)-c2cc(ccn2)OCc2ccc(F)cc21 [Example I-30, (R)-(E)-5^4-fluoro-6-methyl-3-oxa-7-aza-1(3,6)-imidazo[1,2-b]pyridazina-2(2,4)-pyridina-5(1,2)-benzenacycloheptaphane]
10 | < 3 | < 5 | < 100 | – | – | Fc1ccc2c(c1)[C@H]1CCCN1c1ccc3ncc(n3n1)-c1cc(ccn1)CO2 [Example I-49, (14bR,E)-13-fluoro-14b,15,16,17-tetrahydro-9H-1,19-etheno-4,8-(metheno)benzo[b]imidazo[1,5-h]pyrrolo[2,1-d][1]oxa[5,7,8,11]tetraazacyclopentadecine]
11 | < 3 | < 5 | < 100 | – | – | Fc1ccc2c(c1)[C@H]1CCCN1c1ccc3ncc(n3n1)-c1cc(ncn1)CCO2 [Example I-69, (3^2R,E)-4^5-fluoro-5-oxa-2(3,6)-imidazo[1,2-b]pyridazina-1(4,6)-pyrimidina-3(1,2)-pyrrolidina-4(1,2)-benzenacycloheptaphane]
12 | < 3 | < 5 | < 100 | – | – | C[C@H]1Nc2ccc3ncc(n3n2)-c2cc(cnn2)CCOc2ncc(F)cc21 [Example I-89, (4R,E)-5^5-fluoro-4-methyl-6-oxa-3-aza-2(3,6)-imidazo[1,2-b]pyridazina-1(3,5)-pyridazina-5(3,2)-pyridinacyclooctaphane]
13 | – | – | 2.5 | 1 | 0.09 | Fc1cnc2c(c1)[C@H]1C[C@H](F)CN1c1ccc3ncc(n3n1)-c1cc(cnn1)CCO2 [Example I-94, (3^2R,3^4S,E)-3^4,4^5-difluoro-5-oxa-2(3,6)-imidazo[1,2-b]pyridazina-1(3,5)-pyridazina-4(3,2)-pyridina-3(1,2)-pyrrolidinacycloheptaphane]
14 | < 3 | < 5 | < 100 | – | – | C[C@H]1Cc2ccnc(n2)-c2cnc3ccc(nn23)N2CCC[C@@H]2c2cc(F)cnc2O1 [Example I-95, (32R,6S,E)-4-fluoro-6-methyl-5-oxa-2(3,6)-imidazo[1,2-b]pyridazina-1(2,4)-pyrimidina-4(3,2)-pyridina-3(1,2)-pyrrolidinacycloheptaphane]
15 | – | – | 3.7 | 1.4 | 0.11 | C[C@H]1Cc2ccnc(n2)-c2cnc3ccc(nn23)N2C[C@@H](F)C[C@@H]2c2cc(F)cnc2O1 [Example I-96, (3^2R,3^4S,6S,E)-3^4,4^5-difluoro-6-methyl-5-oxa-2(3,6)-imidazo[1,2-b]pyridazina-1(2,4)-pyrimidina-4(3,2)-pyridina-3(1,2)-pyrrolidinacycloheptaphane]
16 | < 3 | < 5 | < 100 | – | – | C[C@@H]1Cc2cc(ncn2)-c2cnc3ccc(nn23)N2CCC[C@@H]2c2cc(F)ccc2O1 [Example I-97, (3^2R,6R,E)-4^5-fluoro-6-methyl-5-oxa-2(3,6)-imidazo[1,2-b]pyridazina-1(4,6)-pyrimidina-3(1,2)-pyrrolidina-4(1,2)-benzenacycloheptaphane]
17 | – | – | 169 | 10 | 3.07 | C[C@@H]1CCc2ncc(F)cc2[C@H]2CCCN2c2ccn3ncc(c3n2)C(=O)N1 [LOXO-195, reference compound]
18 | < 3 | < 5 | < 100 | – | – | (R)-(E)-4-methyl-6-oxa-3-aza-2(3,6)-imidazo[1,2-b]pyridazina-1(4,6)-pyrimidina-5(1,2)-benzenacyclooctaphane [Example I-32]

Source: US20260028352A1, “MACROCYCLIC IMIDAZO [1,2-B] PYRIDAZINE DERIVATIVE, PREPARATION METHOD THEREFOR, AND USE THEREOF” (SUZHOU LANGRUI BIOPHARMACEUTICAL CO., LTD., priority 2022, published 2026)
